Data from patent US20180256623A1, “COMPOSITIONS AND METHOD FOR REGULATING ADIPOSE TISSUE LIPOLYSIS, INSULIN-RESISTANCE, AND HYPERGLYCEMIA” (University of Virginia Patent Foundation, priority 2015, published 2018).

Legend:
[1] = tested on: white adipose tissue organ cultures; settings: cited from earlier work
[2] = tested on: mice; assay: Rodent hemorrhage and trauma (surgery) model; format: in vivo
From the text: The acute changes in blood glucose that occur in a T1DM model were invesitaged. Streptozotocin (STZ)-treated mice were subjected to a hemorrhage protocol to mimic surgical induction of the neuroendocrine stress response in humans (FIG. 1). Adipose tissue lipolysis was controlled via the addition of the small molecule inhibitor Atglistatin. The extent of glycemic excursions and ketogenesis was followed.
Separate rodent models of diabetes were employed to investigate the unique co-morbidities associated with T1DM. For the T1DM model, C57BL/6J mice were subjected to low dose injection of streptozotocin (50 mg/kg) at 6-8 weeks of age (see the website for the Diabetic Complications Consortium).
The protocol for modeling surgery-induced stress has been adapted from several sources and is available to an art worker. Although few human patients undergo extensive hemorrhage during elective surgeries, this rodent protocol is a consistent and reproducible experimental model for surgical stress in humans. Briefly, on the day of the surgery 10-12 week old male mice were fasted for six hours prior to surgery and pre-treated with or without lmg/kg body weight of Atglistatin at four hours prior to surgery to prevent adipose tissue lipolysis. Mice were then anesthetized by continuous inhalation of isoflurane and subjected to a 2-cm ventral midline laparotomy. The abdomen will then be sutured, a catheter was placed in the right femoral artery and mice were hemorrhaged from the left femoral artery to a mean arterial pressure (MAP) of 35-40 mm Hg (T0′). Blood glucose and ketone levels were monitored during the surgery. The mice were followed until 30′ post-hemorrhage and were maintained continuously under anesthesia. At the termination of the experiment, blood was collected to measure serum catecholamines, insulin, cytokines, ketones and glycerol levels, among other possible metabolic parameters.
Rodent hemorrhage and trauma model—To activate the adaptive stress response and emulate the acute hyperglycemia and insulin resistance that develops after surgery, trauma and hemorrhage mice as previously described will be used. Briefly, 10-12 week old male mice are fasted for 4-6 hours prior to surgery and 4 hours before surgery, Atglistatin (1 mg/kg) or vehicle will be injected intraperitoneally. Mice are anesthetized by continuous inhalation of 1.5% isoflurane and 98.5% 02 throughout all procedures. After the mice are shaved, surgery will begin with a 2-cm ventral midline laparotomy. The abdomen is then sutured and the wounds bathed with 1% lidocaine to reduce pain. A catheter is placed in the right femoral artery for monitoring mean arterial pressure (MAP). To replicate the blood loss during a surgery, mice are hemorrhaged from the left femoral artery to an MAP of 35-40 mmHg over a 10-minute period. Once the MAP reaches 35-40 mmHg, the […]. […] Control mice are subjected to trauma alone. Mice are subjected to anesthesia, laparotomy, and catheterization. […] Blood glucose levels are monitored during the surgery.

[3] = molecular target: T1, monoglyceride lipase (Homo sapiens, UniProt Q99685); settings: cited from earlier work
T1 sequence (Q99685 1-303): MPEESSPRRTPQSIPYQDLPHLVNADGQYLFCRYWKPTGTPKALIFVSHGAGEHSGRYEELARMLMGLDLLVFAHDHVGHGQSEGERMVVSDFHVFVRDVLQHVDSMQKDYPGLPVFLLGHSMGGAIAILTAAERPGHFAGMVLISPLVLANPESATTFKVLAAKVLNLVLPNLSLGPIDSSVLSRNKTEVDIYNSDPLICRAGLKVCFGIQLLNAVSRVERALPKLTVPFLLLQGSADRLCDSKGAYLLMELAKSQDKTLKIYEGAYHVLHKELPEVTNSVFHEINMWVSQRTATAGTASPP

[4] = molecular target: T2, lipoprotein lipase (Homo sapiens, UniProt P06858); settings: cited from earlier work
T2 sequence (P06858 28-475): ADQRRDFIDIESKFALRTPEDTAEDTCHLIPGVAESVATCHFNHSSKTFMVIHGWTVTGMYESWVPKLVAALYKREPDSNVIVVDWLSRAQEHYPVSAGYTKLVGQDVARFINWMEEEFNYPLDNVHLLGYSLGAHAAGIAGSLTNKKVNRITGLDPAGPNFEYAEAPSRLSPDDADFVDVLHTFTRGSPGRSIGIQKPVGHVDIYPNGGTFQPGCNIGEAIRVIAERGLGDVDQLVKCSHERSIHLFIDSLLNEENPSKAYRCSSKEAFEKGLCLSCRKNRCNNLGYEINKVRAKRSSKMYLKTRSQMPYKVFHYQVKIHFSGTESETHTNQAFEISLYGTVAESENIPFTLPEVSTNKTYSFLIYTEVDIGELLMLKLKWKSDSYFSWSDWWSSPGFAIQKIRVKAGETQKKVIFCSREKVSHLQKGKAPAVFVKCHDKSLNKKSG

[5] = molecular target: T3, pancreatic lipase (Homo sapiens, UniProt P16233); settings: cited from earlier work
T3 sequence (P16233 17-465): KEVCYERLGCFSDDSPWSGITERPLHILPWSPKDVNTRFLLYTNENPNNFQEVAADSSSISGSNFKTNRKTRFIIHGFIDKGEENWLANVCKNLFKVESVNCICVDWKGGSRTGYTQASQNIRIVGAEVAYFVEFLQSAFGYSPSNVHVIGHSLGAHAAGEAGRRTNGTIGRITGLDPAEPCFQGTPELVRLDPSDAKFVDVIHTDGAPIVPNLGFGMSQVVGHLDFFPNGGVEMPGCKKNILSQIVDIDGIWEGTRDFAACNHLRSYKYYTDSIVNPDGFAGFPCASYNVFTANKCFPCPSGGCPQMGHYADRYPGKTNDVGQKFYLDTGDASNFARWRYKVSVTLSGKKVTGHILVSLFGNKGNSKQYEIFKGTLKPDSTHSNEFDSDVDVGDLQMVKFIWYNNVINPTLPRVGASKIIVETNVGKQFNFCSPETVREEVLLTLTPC

[6] = tested on: lipolysis by ATGL; settings: in vivo; cited from earlier work

Compound: CN(C)C(=O)Nc1cccc(-c2ccc(N(C)C)cc2)c1 [Atglistatin, N′-[4′-(dimethylamino) [1,1′-biphenyl]-3-yl]-N,N-dimethyl-urea]
- lipolysis by ATGL (fatty acid mobilization) [1]: blocks lipolysis
- adipose tissue lipolysis as assessed by serum glycerol levels ([2]; control mice, pre-treated with lmg/kg body weight four hours prior to surgery, FIG. 2B): attenuating adipose tissue lipolysis
- circulating glycerol (lipolysis) ([2]; mice, Atglistatin 1 mg/kg intraperitoneally 4 hours before surgery): reduction in circulating glycerol
- hemorrhage-induced hyperglycemia ([2]; mice, Atglistatin 1 mg/kg intraperitoneally 4 hours before surgery, FIG. 3A): effective in preventing hemorrhage-induced hyperglycemia
- insulin resistance in adipose tissue and skeletal muscle ([2]; mice, Atglistatin 1 mg/kg intraperitoneally 4 hours before surgery, FIG. 3B): attenuation of insulin resistance in adipose tissue and skeletal muscle
- stress-induced lipolysis ([2]; pharmacological inhibition of ATGL): largely blocks stress-induced lipolysis
- inhibition of monoglyceride lipase [3]: does not inhibit
- inhibition of lipoprotein lipase [4]: does not inhibit
- inhibition of pancreatic lipase [5]: does not inhibit
- lipolysis by ATGL (fatty acid mobilization) [6]: blocks lipolysis
